Literature values, collected in patent publication US6063383A, “Pharmaceutical suppository composites for fever and influenza and method of producing the composites” (priority 1999, dated 2000).

System: small rats
Conditions: rat, in vivo

## NCCS(=O)(=O)O [taurine]
  spontaneous and pedaling activities: can reduce the combined action of spontaneous activities and pedaling activities
